# Like-named read-outs stand apart in the source and are kept apart here.
# Columns and labels:
# [1] = Lenalidomide pharmacokinetic study in rats (IV and oral); format: in vivo, Sprague Dawley rats; conditions: for AUC / Cmax / Tmax / half-life / bioavailability: plasma; for bioavailability: po
# Protocol: All animal pharmacokinetic experiments were carried out by WuXi (Shanghai, China). Animals were kept on a light-dark cycle and allowed to eat and drink ad libitum. Animals receiving oral doses were fasted overnight. Animals’ condition and behavior were monitored throughout the experiment for signs of pain and distress. We utilized only male rats because similar pharmacokinetics in both genders was previously reported and no dosage adjustment is recommended based on gender, in order to reduce the number of animals required.
# Male Sprague Dawley rats (230–280 g) (n = 3 per group) were administered lenalidomide (0.1, 1, 2, 10, and 50 mg/kg). The vehicles for oral and intravenous dosing were 0.6% methylcellulose A15 + 0.2% Tween 80 in water and 10% DMSO + 60% propylene glycol + 30% water, respectively. Serum samples were obtained prior to administration (predose) and at 0.033, 0.083, 0.25, 0.5, 1, 2, 4, and 6 h postdose from the IV group and at 0.083, 0.25, 0.5, 1, 2, 4, 8, and 24 h from the oral groups. Approximately 250 μL was collected at each time point via a catheter at the femoral artery from each rat into prechilled commercial K2-EDTA tubes on wet ice. Samples were centrifuged (3200× g for 10 min at 4 °C) within one hour of collection and frozen at −60 °C or lower before analysis. Approximately 5 mL of whole blood was collected from additional blank animals into prechilled commercial K2-EDTA tubes on wet ice and pooled to serve as blank plasma for bio-analysis. […] Animals were kept in metabolic cages to collect urine, feces, and bile at different periods after dosing. Wet ice was added during the whole collection process for urine and feces. Feces was homogenized in water, and the urine samples and feces homogenates were kept at −70 ± 10 °C until LC-MS/MS analysis. Pharmacokinetic parameters were calculated by non-compartmental methods, as described in Gibaldi and Perrier, using Phoenix® WinNonlin® version 8.5 (Certara L.P., Radnor, PA, USA).
# The human equivalent dose (HED) was calculated based on the previously reported AUC after a typical dose in humans. The percentage of lenalidomide excreted in the feces/urine in 24 h was calculated by multiplying the fecal weight/urine volume by its measured lenalidomide concentration and dividing by the total amount of lenalidomide administered.(2) Percentage excreted in feces=100 · Feces weight ·Feces concentration /Dose volume ·Dose concentration (3) Percentage excreted in urine=100 · Urine volume ·Urine concentration /Dose volume ·Dose concentration
# For the in vivo study, mass spectrometry detection of lenalidomide was accomplished using a SCIEX QTrap 6500+. Transition pairs used for quantification were as follows: lenalidomide (260.1 → 149.1 Da), labetalol (329.1 → 294.1 Da), indomethacin (357.9 → 139.0 Da), and loperamide (477.1 → 266.2 Da). Separation was achieved using a Waters Acquity UPLC system.
# For urine samples, mobile phase A was 0.1% NH4OH and 2 mM NH4OAc in water/acetonitrile (v:v, 95:5), and mobile phase B was 0.1% NH4OH and 2 mM NH4OAc in acetonitrile/water (v:v, 95:5). Mobile phases were operated at the following gradient: initial, 1% B; 0–0.2 min, 1% B; 0.2–1, 30% B; 1–1.5, 100% B; 1.5–1.9, 100% B; 1.9–1.91, 1% B; and 1.91–2, 1% B. The column used was a Waters Acquity UPLC BEH C18 1.7 μm (2.1 × 50 mm) with flow rate of 0.6 mL/min and column oven temperature of 60 °C.
# For plasma and feces samples, mobile phase A was 0.1% formic acid and 2 mM HCOONH4 in water, and mobile phase B was 0.1% formic acid and 2 mM HCOONH4 in acetonitrile/water (v:v, 95:5). Mobile phases were operated at the following gradient: initial, 1% B; 0–0.3 min, 1% B; 0.3–1.5, 30% B; 1.5–2.1, 95% B; 2.1–2.4, 95% B; 2.4–2.41, 1% B; and 2.41–2.5, 1% B. The column used was a Waters Acquity UPLC HSS T3 1.8 μm (2.1 × 50 mm) with a flow rate of 0.6 mL/min and a column oven temperature of 45 °C.
# For in vivo studies, feces samples were homogenized at a ratio of 1 g feces to 9 mL buffer. […]
# [2] = cited from earlier work
# [3] = tested on: gMDCK monolayers; test: gMDCK (P-gp knockout MDCK) monolayer permeability assay
# [4] = Sprague Dawley, rat, male rats, 0.1 mg/kg PO
# [5] = Sprague Dawley, rat, male rats, 1 mg/kg IV
# [6] = Sprague Dawley, rat, male rats, 2 mg/kg PO
# [7] = Sprague Dawley, rat, male rats, 10 mg/kg PO
# [8] = Sprague Dawley, rat, male rats, 50 mg/kg PO
compound,measurement,setting,value
Nc1cccc2c1CN(C1CCC(=O)NC1=O)C2=O (stereo not shown) [Lenalidomide],dose excreted,"[1]; Sprague Dawley, rat, feces, male rats, 0.1 mg/kg PO, read-out: Fecal Recovery",12%
same,dose excreted,"[1]; Sprague Dawley, rat, feces, male rats, 1 mg/kg IV, 24 h, read-out: Fecal Recovery",3.2%
same,dose excreted,"[1]; Sprague Dawley, rat, feces, male rats, 2 mg/kg PO, read-out: Fecal Recovery",12%
same,dose excreted,"[1]; Sprague Dawley, rat, feces, male rats, 10 mg/kg PO, read-out: Fecal Recovery",10%
same,dose excreted,"[1]; Sprague Dawley, rat, feces, male rats, 50 mg/kg PO, read-out: Fecal Recovery",16%
same,AUC,[1]; [4],0.29 µM·h
same,Cmax,[1]; [4],0.2 µM
same,Tmax,[1]; [4],25.2 min
same,half-life,[1]; [4],52.2 min
same,Cmax,[1]; [5],4.9 µM
same,Tmax,[1]; [5],1.8 min
same,half-life,[1]; [5],72 min
same,AUC,"[1]; Sprague Dawley, rat, male rats, 1 mg/kg IV, serum, n=3",2.34 µM·h
same,AUC,[1]; [6],5.44 µM·h
same,Cmax,[1]; [6],1.6 µM
same,Tmax,[1]; [6],19.8 min
same,half-life,[1]; [6],84 min
same,AUC,[1]; [7],15.4 µM·h
same,Cmax,[1]; [7],8.4 µM
same,Tmax,[1]; [7],25.2 min
same,half-life,[1]; [7],84 min
same,AUC,[1]; [8],79.4 µM·h
same,Cmax,[1]; [8],29 µM
same,Tmax,[1]; [8],30 min
same,half-life,[1]; [8],162 min
same,dose excreted,"[1]; Sprague Dawley, rat, urine, male rats, 0.1 mg/kg PO, read-out: Urinary Recovery",47%
same,dose excreted,"[1]; Sprague Dawley, rat, urine, male rats, 1 mg/kg IV, 24 h, unchanged drug, read-out: Urinary Recovery",87%
same,dose excreted,"[1]; Sprague Dawley, rat, urine, male rats, 2 mg/kg PO, read-out: Urinary Recovery",45%
same,dose excreted,"[1]; Sprague Dawley, rat, urine, male rats, 10 mg/kg PO, read-out: Urinary Recovery",48%
same,dose excreted,"[1]; Sprague Dawley, rat, urine, male rats, 50 mg/kg PO, read-out: Urinary Recovery",43%
same,BA,"[1]; male rats, 0.1 mg/kg PO",122%
same,BA,"[1]; male rats, 1 mg/kg IV (reference)",100%
same,BA,"[1]; male rats, 2 mg/kg PO",116%
same,BA,"[1]; male rats, 10 mg/kg PO",66.0%
same,BA,"[1]; male rats, 50 mg/kg PO",67.9%
same,dose excreted,"[1]; male, Sprague Dawley, rat, feces, rats, across oral doses, read-out: fecal recovery",~12%
same,bioavailability,"[1]; male, Sprague Dawley, rat, rats, all doses",68 to 120%
same,bioavailability,"[1]; male, Sprague Dawley, rat, rats, low doses",> 100%
same,Tmax,"[1]; male, Sprague Dawley, rat, rats, across oral doses",~30 min
same,CL renal,"[1]; male, Sprague Dawley, rat, urine and plasma, iv, 1 mg/kg, read-out: CLR (renal clearance)",24 mL/min/kg
same,dose excreted,"[1]; male, Sprague Dawley, rat, urine, rats, all oral doses, read-out: Urinary recovery",~45%
same,Human Equivalent Dose,[1]; rat 2 mg/kg PO,~26 mg
same,Human Equivalent Dose,[1]; rat 10 mg/kg PO,~73 mg
same,Human Equivalent Dose,[1]; rat 50 mg/kg PO,~376 mg
same,LogP (o/w),"[2]; Figure 1, ref PubChem",< 1
same,pKa,[2]; lower pKa,2.3
same,LogP,[2]; ref PubChem,−0.40
same,effect of 4% bovine serum albumin in the receiver side on apparent permeability,"[3]; gMDCK, sink condition",did not increase
same,effect of shaking gMDCK cells during the permeability assay on permeability,[3]; shaking transwell plate at 1000 rpm,did not significantly change
